Numbers after ± are expanded uncertainties.
Columns and labels:
[1] = 101 kPa, Liquid; for mass density: Vibrating tube method; for speed of sound: vibrating tube
[2] = mn = molality of the nth substance listed, in mol/kg; settings: 101 kPa, Liquid; for mass density: Vibrating tube method; for speed of sound: vibrating tube:WF =

O [water]
[1]
Settings	mass density [kg/m3]	speed of sound [m/s]
305.15 K	995.09 ± 0.1	1513.5 ± 2
310.15 K	993.403 ± 0.1	1523.5 ± 2
315.15 K	991.51 ± 0.1	1532.2 ± 2

CC(C)C[C@H](NC(=O)[C@H](C)N)C(=O)O [L-alanyl-L-leucine] + O
[2]
Settings	mass density, 305.15 K [kg/m3]	mass density, 310.15 K [kg/m3]	mass density, 315.15 K [kg/m3]	speed of sound, 305.15 K [m/s]	speed of sound, 310.15 K [m/s]	speed of sound, 315.15 K [m/s]
m1 = 0.00185	995.164 ± 0.1	993.476 ± 0.1	991.582 ± 0.1	1514.3 ± 2	1524.7 ± 2	1533.2 ± 2
m1 = 0.00389	995.246 ± 0.1	993.556 ± 0.1	991.661 ± 0.1	1514.4 ± 2	1525 ± 2	1533.4 ± 2
m1 = 0.00579	995.323 ± 0.1	993.631 ± 0.1	991.734 ± 0.1	1514.6 ± 2	1525.2 ± 2	1533.7 ± 2
m1 = 0.00813	995.416 ± 0.1	993.723 ± 0.1	991.825 ± 0.1	1514.7 ± 2	1525.4 ± 2	1533.9 ± 2
m1 = 0.00966	995.478 ± 0.1	993.783 ± 0.1	991.884 ± 0.1	1514.9 ± 2	1525.7 ± 2	1534 ± 2
m1 = 0.0122	995.579 ± 0.1	993.883 ± 0.1	991.982 ± 0.1	1515 ± 2	1525.9 ± 2	1534.3 ± 2
m1 = 0.01422	995.66 ± 0.1	993.962 ± 0.1	992.06 ± 0.1	1515.1 ± 2	1526 ± 2	1534.5 ± 2
m1 = 0.01589	995.727 ± 0.1	994.027 ± 0.1	992.124 ± 0.1	1515.3 ± 2	1526.3 ± 2	1534.7 ± 2
m1 = 0.01753	995.792 ± 0.1	994.092 ± 0.1	992.188 ± 0.1	1515.5 ± 2	1526.6 ± 2	1534.9 ± 2
m1 = 0.02055	995.913 ± 0.1	994.21 ± 0.1	992.304 ± 0.1	1515.6 ± 2	1526.7 ± 2	1535 ± 2
